According to ChEMBL document CHEMBL4513153, “CO-ADD screening of University of Northwestern St. Paul (MN, USA) compounds”:

Tests used:
[1] = test system: Escherichia coli; assay: microbe, parasite or virus in culture; conditions: ATCC 25922, 18 h, ASSAY_TEST Inhibition of Bacterial Growth, detection method Absorption (OD600), MEDIA CAMHB, plate type 384well, NBS, CORNING #3640
Description: Antibacterial activity against Escherichia coli ATCC 25922 (CO-ADD:GN_001); MIC in CAMBH media using NBS plates, by OD(600)

[2] = test system: Staphylococcus aureus; assay: microbe, parasite or virus in culture; conditions: ATCC 43300, 18 h, ASSAY_TEST Inhibition of Bacterial Growth, detection method Absorption (OD600), MEDIA CAMHB, plate type 384well, NBS, CORNING #3640
Description: Antibacterial activity against Staphylococcus aureus MRSA ATCC 43300 (CO-ADD:GP_020); MIC in CAMBH media, using NBS plates, by OD(600)

[3] = test system: Cryptococcus neoformans
Description: Antifungal activity against Cryptococcus neoformans H99 ATCC 208821 (CO-ADD:FG_002); MIC in YNB media using NBS plates, by Resazurin OD(600-570)

[4] = test system: Candida albicans; assay: microbe, parasite or virus in culture; conditions: ATCC 90028, ASSAY_TEST Inhibition of Fungal Growth, detection method Absorption (OD530), plate type 384well, NBS, CORNING #3640
Description: Antifungal activity against Candida albicans ATCC 90028 (CO-ADD:FG_001); MIC in YNB media using NBS plates, by OD630

[5] = test system: HEK293; assay: cells; assay type: functional; conditions: Homo sapiens, ATCC CRL1573, HEK293; ASSAY_TEST Inhibition of Cell Viability; detection method Resazurin; Fluorescence (ex560/em590); MEDIA DMEM with 10% FBS; plate type 384well; TC; CORNING #3712; time 18 hr
[6] = test system: Pseudomonas aeruginosa; assay: microbe, parasite or virus in culture; conditions: ATCC 27853, 18 h, ASSAY_TEST Inhibition of Bacterial Growth, detection method Absorption (OD600), MEDIA CAMHB, plate type 384well, NBS, CORNING #3640
Description: Antibacterial activity against Pseudomonas aeruginosa ATCC 27853 (CO-ADD:GN_042); MIC in CAMBH media using NBS plates, by OD(600)

[7] = test system: Acinetobacter baumannii; assay: microbe, parasite or virus in culture; conditions: ATCC 19606, 18 h, ASSAY_TEST Inhibition of Bacterial Growth, detection method Absorption (OD600), MEDIA CAMHB, plate type 384well, NBS, CORNING #3640
Description: Antibacterial activity against Acinetobacter baumannii ATCC 19606 (CO-ADD:GN_034); MIC in CAMBH media using NBS plates, by OD600

[8] = test system: Klebsiella pneumoniae; assay: microbe, parasite or virus in culture; conditions: ATCC 700603, 18 h, ASSAY_TEST Inhibition of Bacterial Growth, detection method Absorption (OD600), MEDIA CAMHB, plate type 384well, NBS, CORNING #3640
Description: Antibacterial activity against Klebsiella pneumoniae MDR ATCC 70063 (CO-ADD:GN_003); MIC in CAMBH media using NBS plates, by OD(600)

## Cl.N=C(N)Nc1nc(-c2c[nH]c3ccccc23)cs1
[1]
  MIC: > 32 µg/mL
[2]
  MIC: > 32 µg/mL
[3]
  MIC: 16 µg/mL
[4]
  MIC: > 32 µg/mL
[5]
  CC50: 9.6 µg/mL
[6]
  MIC: > 32 µg/mL
[7]
  MIC: > 32 µg/mL
[8]
  MIC: > 32 µg/mL

## NC(N)=Nc1nc(-c2csc3ccccc23)cs1
[1]
  MIC: > 32 µg/mL
[2]
  MIC: > 32 µg/mL
[3]
  MIC: > 32 µg/mL
[4]
  MIC: > 32 µg/mL
[5]
  CC50: > 32 µg/mL
[6]
  MIC: > 32 µg/mL
[7]
  MIC: > 32 µg/mL
[8]
  MIC: > 32 µg/mL
